One data set deals with MCF-7. As to the kind of experiment: MTT proliferation inhibition, MCF-7. In kind it is cell-based. Particulars: Homo sapiens, MCF7. As for the experimental part: (§1) […] of DMSO was added for dissolution.
(§2) The experimental method may be referred to Test Example 2, except that the cell strains of RPMI8226 and NCI-H929 were replaced with corresponding tumor cells.

The subject of the next data set is NCI-H929 cell. Description: MTT proliferation inhibition, NCI-H929. Particulars: Homo sapiens, NCI-H929, 72 h, read-out: Cytotoxicity IC50 (nM) NCI-H929 cell.
A further data set relates to HCT116. Description: MTT proliferation inhibition, HCT116. In kind it is cell-based. Particulars: Homo sapiens. As for the experimental part: as §1, §2
In another data set the test system is K562. As to the kind of experiment: MTT cell activity, K562. Type of data set: cell-based. Particulars: Homo sapiens.
Data set [1] has as its system subcutaneous xenograft of human myeloma RPMI 8226. As to the kind of experiment: Growth inhibition of subcutaneous xenograft of human myeloma RPMI 8226 in NOD/SCID mice. In kind it is in vivo. Particulars: for Tumor inhibition (%) / Tumor weight (g) mean ± SD: RPMI8226 xenograft NOD/SCID mice; for Tumor weight (g), single animals: individual mice. As for the experimental part:
Experimental Method: Human myeloma RPMI8226 cell strain was inoculated subcutaneously at right flank of NOD/SCID mice with an inoculation quantity of 1×10^7 cells/mouse. After forming a xenograft, the experiment was started.
The diameters of subcutaneous xenografts of NOD/SCID mice were measured with a vernier caliper. After the tumor was grown to the size of 100-300 mm^3, the animals were grouped randomly. Equal volume of blank solvent was administered to the group of solvent control. During the experimentation, the diameters of subcutaneous xenografts were measured twice a week, and the mice were weighed at the same time.

The next data set deals with RPMI8226 cell. Description: MTT proliferation inhibition, RPMI8226. Particulars: Homo sapiens, RPMI-8226, 72 h, read-out: Cytotoxicity IC50 (nM) RPMI8226 cell.
The test system of another data set is MGC-803. As to the kind of experiment: MTT proliferation inhibition, MGC-803. Type of data set: cell-based. Conditions: Homo sapiens. As for the experimental part: as §1, §2
A further data set relates to LP1. Description: MTT proliferation inhibition, LP1. In kind it is cell-based. Particulars: Homo sapiens, LP-1. As for the experimental part:
as §1, §2

The subject of a further data set is PC-3. As to the kind of experiment: MTT proliferation inhibition, PC-3. In kind it is cell-based. Conditions: Homo sapiens. As for the experimental part: as §1, §2
The nature of another data set: MTT cell activity, BORT. Type of data set: cell-based.
The test system of another data set is MM-1R. Description: MTT cell activity, MM-1R. In kind it is cell-based. Conditions: 100 nM.
Another data set concerns MM-1S. Description: MTT cell activity, MM-1S. Type of data set: cell-based. Particulars: Homo sapiens, MM1.S; 100 nM.
The subject of the next data set is HELA. Description: MTT cell activity, HELA. Type of data set: cell-based. Particulars: Homo sapiens.
Data set [2] is described as follows: MTT proliferation inhibition, NCI-H929.
Procedure: (§3) Experimental Method: Cell viability was determined by MTT method preformed as follows. Cells grown at the logarithmic growth phase was digested with a 0.01% trypsin, counted, plated in a 96-cell plate at a cell density of 2.0*10^3/well for 100 ml, and cultured in a 5% CO2 incubator at a temperature of 37° C. overnight. For each of the compounds, a gradient of six concentrations were set, in triplicate for each concentration. […] 20 ml of 5 mg/ml MTT was added to each of the cells. After incubation at a temperature of 37° C. for 3 h, supernatant was removed by suction. 100 ml of DMSO was added for dissolution. Absorption at 550 nm (L1) was determined by using SpectraMAX 340 with a reference wavelength of 690 nm (L2). The values of (L1-L2) were plotted against various concentrations, and fitted into a formula to give IC50.
Data set [3] can be described thus: MTT proliferation inhibition, RPMI8226.
Procedure: as §3
In data set [4] the target is Human proteasome chymotrypsin-like protease (Homo sapiens, UniProt P28074). Description: Proteasome CT-L inhibition, fluorescent substrate Suc-Leu-Leu-Val-Tyr-AMC. In kind it is biochemical. The text has this:
Experimental Method: By using a fluorescent substrate Suc-Leu-Leu-Val-Tyr-AMC to observe the inhibition of various compounds on activity of the enzyme, the inhibitory effect of the compounds was preliminarily evaluated. Human proteasome chymotrypsin-like protease may hydrolyze the sequence Tyr-AMC of the substrate to release AMC.

Data set [5] deals with proteasome T-L active site (Homo sapiens, UniProt Q99436). Description: Proteasome T-L inhibition, substrate Bz-Val-Gly-Arg-AMC. Type of data set: biochemical.
For data set [6], the target named is proteasome PGPH active site (Homo sapiens, UniProt P28072). Description: Proteasome PGPH inhibition, substrate Z-Leu-Leu-Glu-AMC. Type of data set: biochemical.

“And” between values parts separate entries of the source, which are not always exact repeats. Equal entries are not always repeated. Where two headings read alike, the source gives them in different places. Bounds are passed on as bounds.

Procedure for MM-1S: as §3
Procedure for MTT cell activity, BORT: as §3
Procedure for NCI-H929 cell: as §3
Procedure for RPMI8226 cell: as §3

In general, IC50 refers to the concentration that gives 50% inhibition. For `CC(C)C[C@H](NC(=O)[C@H](CCc1ccccc1)NC(=O)CN1CCOCC1)C(=O)N[C@@H](Cc1ccccc1)C(=O)N[C@@H](CC(C)C)C(=O)[C@@]1(C)CO1` [Carfilzomib, reference compound], the IC50 is 1.02 ± 0.07 µM in the data set with MCF-7; 28.8 nM with NCI-H929 cell; 8.93 ± 1.44 µM in the data set on HCT116 (HCT-116, MTT); 3 nM with RPMI8226 cell; 8.95 ± 0.12 nM with MGC-803; 22.7 ± 2.51 nM in the data set with LP1. This compound yielded a half-inhibitory concentration (IC50) with PC-3 of 24.2 ± 2.72 µM. The activity at 10 µM stood at 58.6 ± 1.04% with K562 and 61.2 ± 3.44% with HELA. In data set [1] (4 mg/kg), the “Tumor inhibition (%)” value worked out at 58.10%. Besides, in [1] (4 mg/kg), the “Tumor weight (g) mean ± SD” value came out at 0.53 ± 0.21 g. For the same compound, in [1] (4 mg/kg), the “Tumor weight (g), single animals” value is 0.57 g and 0.38 g and 0.32 g and 0.85 g. This compound returned an activity at 1 µM in the data set “MTT cell activity, BORT” of 61.1 ± 2.49%. In addition, the activity at 0.1 µM in the data set with MM-1R amounted to 92.2 ± 6.34%; in the data set on MM-1S, 76.2 ± 1.36%.

Take `CC(C)C[C@H](NC(=O)N1CCN(C(=O)c2cnccn2)CC1)C(=O)N[C@@H](Cc1ccccc1)C(=O)N[C@@H](CC(C)C)C(=O)[C@@]1(C)CO1` [Compound 5c, 4-(pyrazin-2-oyl)piperazin-1-oyl-Leu-Phe-Leu-epoxy ketone]: the IC50 in [2] worked out at 0.101 µM; in [3], 0.0289 µM; in data set [4], 0.0908 µM.

Regarding `CC(C)C[C@H](NC(=O)N1CCC(C(=O)Nc2cnccn2)CC1)C(=O)N[C@@H](Cc1ccccc1)C(=O)N[C@@H](CC(C)C)C(=O)C1(C)CN1` (stereo partly drawn) [Compound 5v, 4-(pyrazin-2-yl carbamoyl)piperidin-1-oyl-Leu-Phe-Leu-aziridinone], the IC50 in [2] and in data set [3] was greater than 1 µM throughout.

Consider `CCN1CC1(C)C(=O)[C@H](CC(C)C)NC(=O)[C@H](Cc1ccccc1)NC(=O)[C@H](CC(C)C)NC(=O)N1CCC(C(=O)Nc2cnccn2)CC1` (stereo partly drawn) [Compound 5w, 4-(pyrazin-2-yl carbamoyl)piperidin-1-oyl-Leu-Phe-Leu-(N-ethyl aziridinone)], for which the IC50 in [2] and in data set [3] was greater than 1 µM each time.

Consider `CC(C)C[C@H](NC(=O)N1CCC(C(=O)Nc2cnccn2)CC1)C(=O)N[C@@H](Cc1ccccc1)C(=O)N[C@@H](CC(C)C)C(=O)C1(C)CS1` (stereo partly drawn) [Compound 5t, 4-(pyrazin-2-yl carbamoyl)piperidin-1-oyl-Leu-Phe-Leu-cyclothione], for which the IC50 in data set [2] and in data set [3] was greater than 1 µM each time.

With `CC(C)C[C@H](NC(=O)[C@H](Cc1ccccc1)NC(=O)c1cnccn1)B(O)O` [Bortezomib], the IC50 with NCI-H929 cell is 9.5 nM. Moreover, in data set [1] (1 mg/kg), the “Tumor inhibition (%)” value is reported as 34.78%; the “Tumor weight (g) mean ± SD” value is reported as 0.83 ± 0.25 g; the “Tumor weight (g), single animals” value is 1.21 g and 0.38 g and 0.92 g and 0.90 g and 0.74 g and 0.80 g. The IC50 with RPMI8226 cell was found to be 1.8 nM.

With `CC(C)C[C@H](NC(=O)N1CCC(C(=O)Nc2ccc(F)cc2)CC1)C(=O)N[C@@H](Cc1ccccc1)C(=O)N[C@@H](CC(C)C)C(=O)C1(C)CS1` (stereo partly drawn) [Compound 5u, 4-(4-fluorophenyl carbamoyl)piperidin-1-oyl-Leu-Phe-Leu-cyclothione], the 50% inhibitory concentration (IC50) in data set [2] and in [3] was greater than 1 µM in each case.

For the compound `CC(C)C[C@H](NC(=O)N1CCC(C(=O)Nc2ccccn2)CC1)C(=O)N[C@@H](Cc1ccccc1)C(=O)N[C@@H](CC(C)C)C(=O)[C@@]1(C)CO1` [Compound 5k, 4-(pyridin-2-yl carbamoyl)piperidin-1-oyl-Leu-Phe-Leu-epoxy ketone], the IC50 with MCF-7 turned out to be 0.42 ± 0.04 µM; in [2], 0.0153 µM; in [5], 3180 ± 47.2 nM; in the data set on HCT116 (HCT-116, read-out: IC50 HCT116), 0.00572 ± 0.00072 µM; in data set [3] it was 0.0025 µM; with MGC-803, 3.72 ± 0.13 nM. For the same compound, the IC50 amounted to 15.2 ± 2.82 nM with LP1, 7.74 ± 0.77 µM in the data set on PC-3, 485 ± 26.1 nM in data set [6] (read-out: IC50 (nM) PGHP) and 0.0015 µM in data set [4]. For the same compound, the “T-L (Fold/CT-L)” value in data set [5] (ratio of T-L IC50 to CT-L IC50) is on record as “(2107.0)”. Further, the activity at 10 µM worked out at 55.6 ± 1.53% in the data set on K562 and 55.8 ± 3.53% in the data set on HELA. Also, in data set [1] (4 mg/kg), the “Tumor inhibition (%)” value stood at 53.62%. Also, the “Tumor weight (g) mean ± SD” value in data set [1] (4 mg/kg) is recorded as 0.59 ± 0.24 g. Also, in data set [1] (4 mg/kg), the “Tumor weight (g), single animals” value is 0.20 g and 0.66 g and 0.44 g and 0.52 g and 0.72 g and 0.98 g. The compound further showed an activity at 1 µM in the data set “MTT cell activity, BORT” of 54.5 ± 2.13%. Moreover, the “PGHP (Fold/CT-L)” value in [6] (ratio of PGHP IC50 to CT-L IC50) was 321.0. In addition, the activity at 0.1 µM in the data set with MM-1R amounted to 88.2 ± 7.24%; in the data set with MM-1S it was 72.2 ± 3.19%.

The record behind these values is US9856288B2, “Tripeptide epoxyketone compound constructed by heterocycle and preparation method and use thereof” (ZHEJIANG UNIVERSITY, priority 2014, dated 2018).
